Calls of active or inactive are those of the source. The rule behind the calls is not given here.
What was measured:
B16-F10 [1] = test: Induction of DNA damage in mouse B16-F10 cells assessed as green fluorescence in nuclei at 10 uM measured after irradiation with […] light by gamma-H2AX based assay; type: functional, cell-based
B16-F10 [2] = test: Cytotoxicity against mouse B16-F10 cells assessed as decrease in green fluorescence at 1 to 10 uM measured after cells irradiated with 100 mW/cm^2, 660 nm light irradiation for 15 mins by Calcein-AM/PI staining based photodynamic therapy (PDT) assay; type: functional, cell-based; conditions: dose 1-10 µM
[3] = Drug uptake in BALB/c mouse transplanted with mouse B16-F10 cells assessed as increase in fluorescence intensity at tumor site at 200 uM administered via intratumoural injection followed by irradiated with 660 nm laser measured for 3 to 21 mins by imaging assay; type: ADME; conditions: in vivo, other, time 3-21 min, route it(Intratumoral)
[4] = Induction of ROS generation assessed as superoxide anion production by measuring fold increase in fluorescent intensity of DHR123 using 526 nm pre-irradiated compound relative to non-illuminated condition; type: functional
B16-F10 [5] = test: Induction of apoptosis in mouse B16-F10 cells assessed as late apoptotic cells at 10 uM measured after 8 hrs by annexin VFITC (AV)/propidium iodide (PI) based flow cytometry (reference value: 5.20%); type: functional
[6] = Induction of ROS generation in DCFH solution assessed as increase in fluorescent intensity measured under laser irradiation 660 nm for continuous 9 secs; type: functional; conditions: time 9.0 sec
[7] = Induction of ROS generation in DCFH solution assessed as fold increase in fluorescent intensity using 525 nm pre-irradiated compound relative to non-illuminated condition; type: functional
B16-F10 [8] = test: Cytotoxicity against mouse B16-F10 cells assessed as cell viability measured at 10 uM after cells irradiated with 100 mW/cm^2, 660 nm light irradiation for 15 mins followed by measured after 48 hrs incubation by MTT assay relative to control; type: functional; conditions: B16-F10, light or radiation study, read-out: Activity
[9] = Toxicity in BALB/c mouse transplanted with mouse B16-F10 cells assessed as heart damage measured at 200 uM administered via intratumoural injection measured after 7 days by H and E staining based analysis; type: tissue-based; conditions: in vivo, other, 168 h, route it(Intratumoral), time 7 day
[10] = Induction of ROS generation assessed as increase in singlet oxygen production using pre-irradiated compound by measuring reduction in ABDA absorption at 378 nm measured for 90 secs; type: functional; design: scale not given: the % may be the effect or the level left; conditions: time 90.0 sec
B16-F10 [11] = test: Induction of apoptosis in mouse B16-F10 cells assessed as viable cells at 10 uM measured after 8 hrs followed by irradiated (100 mW/cm^2) for 15 mins by annexin VFITC (AV)/propidium iodide (PI) based flow cytometry (reference value: 92.2%); type: functional; conditions: B16-F10, light or radiation study, read-out: Activity
[12] = Induction of hydroxyl radicals generation after irradiation by coumarin-3-carboxylic acid (3-CCA) assay; type: functional
B16-F10 [13] = test: Induction of ROS generation in mouse B16-F10 cells assessed as increase in intracellular singlet oxygen by measuring […] fluorescence in nucleus at 10 uM measured co-incubated with SOSG followed by irradiated for 3 to 15 mins; type: functional, cell-based; conditions: time 3-15 min
B16-F10 [14] = test: Induction of DNA damage in mouse B16-F10 cells assessed as condensed chromatin measured after irradiation with […] light at 10 uM by Hoechst 33342 staining based assay; type: functional, cell-based
[15] = Induction of ROS generation in DCFH solution assessed as increase in fluorescent intensity using 525 nm pre-irradiated compound; type: functional
B16-F10 [16] = test: Induction of DNA damage in mouse B16-F10 cells assessed as green fluorescence in nuclei measured in absence light at 10 uM by gamma-H2AX based assay; type: functional, cell-based
B16-F10 [17] = test: Cytotoxicity against mouse B16-F10 cells assessed as increase in dead cells by measuring red fluorescence at 10 uM measured after cells irradiated with 100 mW/cm^2, 660 nm light irradiation for 3 to 15 mins by Calcein-AM/PI staining based photodynamic therapy (PDT) assay; type: functional, cell-based; conditions: time 3-15 min
[18] = Hemolysis in healthy mouse RBC assessed as hemolysis rate at 1 to 256 uM measured after 2 hrs incubation by microplate reader; type: toxicity, cell-based, Erythrocyte; conditions: mouse red blood cells, dose 1-256 µM, read-out: Activity
[19] = Toxicity in BALB/c mouse transplanted with mouse B16-F10 cells assessed as kidney damage measured at 200 uM administered via intratumoural injection measured after 7 days by H and E staining based analysis; type: tissue-based; conditions: in vivo, other, 168 h, route it(Intratumoral), time 7 day
B16-F10 [20] = test: Induction of apoptosis in mouse B16-F10 cells assessed as early apoptotic cells at 10 uM measured after 8 hrs by annexin VFITC (AV)/propidium iodide (PI) based flow cytometry (reference value: 1.02%); type: functional
B16-F10 [21] = test: Cytotoxicity against mouse B16-F10 cells assessed as cell viability at 10 uM measured absence of irradiation by Calcein-AM/PI staining based assay; type: toxicity; conditions: b16-f10, 10 µM
[22] = Induction of ROS generation assessed as increase in singlet oxygen production by measuring reduction in ABDA absorption; type: functional
B16-F10 [23] = test: Cytotoxicity against mouse B16-F10 cells assessed as cell viability at 1 to 10 uM measured after 48 hrs incubation under dark by MTT assay; type: toxicity, cell-based; conditions: b16-f10, 48 h, dose 1-10 µM
B16-F10 [24] = test: Induction of apoptosis in mouse B16-F10 cells assessed as late apoptotic cells at 10 uM measured after 8 hrs followed by irradiated (100 mW/cm^2) for 15 mins by annexin VFITC (AV)/propidium iodide (PI) based flow cytometry (reference value: 5.20%); type: functional
B16-F10 [25] = test: In vivo antitumor activity against mouse B16-F10 cells transplanted in BALB/c mouse model assessed as inhibition of tumor cells in tumor slice at 200 uM administered via intratumoural injection followed by irradiated with 660 nm laser irradiation measured for 7 days by H and E staining based analysis; type: functional, organism-based; conditions: route it(Intratumoral), time 7.0 day
[26] = Toxicity in BALB/c mouse transplanted with mouse B16-F10 cells assessed as body weight change measured at 200 uM administered via intratumoural injection measured after 7 days; conditions: in vivo, other, 168 h, route it(Intratumoral), time 7 day
B16-F10 [27] = test: In vivo antitumor activity against mouse B16-F10 cells transplanted in BALB/c mouse model assessed as tumor growth inhibition at 200 uM administered via intratumoural injection followed by irradiated with 660 nm laser irradiation measured for 7 days; type: functional, organism-based; conditions: route it(Intratumoral), time 7.0 day
B16-F10 [28] = test: Induction of apoptosis in mouse B16-F10 cells assessed as necrotic cells at 10 uM measured after 8 hrs by annexin VFITC (AV)/propidium iodide (PI) based flow cytometry (reference value: 1.61%); type: functional
B16-F10 [29] = test: Cytotoxicity against mouse B16-F10 cells assessed as cell viability measured irradiated with 100 mW/cm^2, 660 nm light for 15 mins and measured after 48 hrs incubation by MTT assay; type: functional, cell-based; conditions: B16-F10, light or radiation study
B16-F10 [30] = test: Cytotoxicity against mouse B16-F10 cells assessed as cell death rate measured at 2 uM irradiated with 100 mW/cm^2, 660 nm light for 15 mins and measured after 48 hrs of incubation by MTT assay relative to control; type: functional
[31] = Toxicity in BALB/c mouse transplanted with mouse B16-F10 cells assessed as liver damage measured at 200 uM administered via intratumoural injection measured after 7 days by H and E staining based analysis; type: tissue-based; conditions: in vivo, other, 168 h, route it(Intratumoral), time 7 day
B16-F10 [32] = test: Induction of apoptosis in mouse B16-F10 cells assessed as viable cells at 10 uM measured after 8 hrs by annexin VFITC (AV)/propidium iodide (PI) based flow cytometry (reference value: 92.2%); type: functional; conditions: read-out: Activity
B16-F10 [33] = test: In vivo antitumor activity against mouse B16-F10 cells transplanted in BALB/c mouse model assessed as tumor growth inhibition at 200 uM administered via intratumoural injection followed by irradiated with 660 nm laser irradiation measured on day 1; type: functional, organism-based; conditions: route it(Intratumoral), time 1.0 day
B16-F10 [34] = test: Cytotoxicity against mouse B16-F10 cells assessed as increase in dead cells by measuring red fluorescence at 10 uM measured after cells irradiated with 100 mW/cm^2, 660 nm light irradiation for 15 mins by Calcein-AM/PI staining based photodynamic therapy (PDT) assay; type: functional, cell-based
[35] = Photoactivation of the compound assessed as fluorescence changes at 10 uM measured after 21 mins under 660 nm laser irradiation relative to under dark condition; conditions: 0.35 h
[36] = Photoactivation of the compound assessed as release of methylene blue by measuring photolysis half-life at 10 uM under 660 nm laser irradiation
[37] = Toxicity in BALB/c mouse transplanted with mouse B16-F10 cells assessed as spleen damage measured at 200 uM administered via intratumoural injection measured after 7 days by H and E staining based analysis; type: tissue-based; conditions: in vivo, other, 168 h, route it(Intratumoral), time 7 day
B16-F10 [38] = test: Induction of ROS generation in mouse B16-F10 cells assessed as fluorescence intensity at 10 uM measured co-incubated with DCFH-DA followed by irradiated for 3 to 15 mins; type: functional, cell-based; conditions: time 3-15 min
[39] = Induction of hydroxyl radicals generation before irradiation by coumarin-3-carboxylic acid (3-CCA) assay; type: functional
B16-F10 [40] = test: Induction of ROS generation in mouse B16-F10 cells assessed as increase in intracellular superoxide anion by measuring red fluorescence in nucleus at 10 uM measured co-incubated with dihydroethidium (DHE) followed by irradiated for 3 to 15 mins; type: functional, cell-based; conditions: time 3-15 min
[41] = Induction of ROS generation assessed as superoxide anion production by measuring increase in fluorescent intensity of DHR123 using 526 nm (using non pre-irradiated condition); type: functional
[42] = Photoactivation of the compound assessed as release of methylene blue at 10 uM measured after 21 mins under 660 nm laser irradiation; conditions: 0.35 h
B16-F10 [43] = test: Induction of apoptosis in mouse B16-F10 cells assessed as early apoptotic cells at 10 uM measured after 8 hrs followed by irradiated (100 mW/cm^2) for 15 mins by annexin VFITC (AV)/propidium iodide (PI) based flow cytometry (reference value: 1.02%); type: functional
[44] = Stability of the compound measured after 7 days under dark condition; type: physicochemical; conditions: 168 h; time 7 day
[45] = Toxicity in BALB/c mouse transplanted with mouse B16-F10 cells assessed as lung damage measured at 200 uM administered via intratumoural injection measured after 7 days by H and E staining based analysis; type: tissue-based; conditions: in vivo, other, 168 h, route it(Intratumoral), time 7 day
B16-F10 [46] = test: Induction of apoptosis in mouse B16-F10 cells assessed as necrotic cells at 10 uM measured after 8 hrs followed by irradiated (100 mW/cm^2) for 15 mins by annexin VFITC (AV)/propidium iodide (PI) based flow cytometry (reference value: 1.61%); type: functional

CN(C)c1ccc2nc3ccc(=[N+](C)C)cc-3sc2c1
Activity (B16-F10 [1]): Active

CN(C)c1ccc2c(c1)Sc1cc(N(C)C)ccc1N2C(=O)Nc1ccc(N(CCCl)CCCl)cc1
Activity (B16-F10 [2]): Active
Drug uptake [3]: Active
fold change (FC) [4]: 113
Activity (B16-F10 [5]): 3.27%
Activity [6]: inactive
fold change (FC) [7]: 69
viability at 10 µM (B16-F10 [8]): 9.4%
Activity [9]: Non-toxic
Activity [10]: 97%
viability at 10 µM (B16-F10 [11]): 23.8%
Activity [12]: inactive
Activity (B16-F10 [13]): Active
Activity (B16-F10 [14]): Active
Activity [15]: Active
Activity (B16-F10 [16]): Not active; Compound Showed Only Minimal Green Fluorescence
Activity (B16-F10 [17]): Active
hemolysis at 2 h, up to 256 µM [18]: < 5%
Activity [19]: Non-toxic
Activity (B16-F10 [20]): 6.85%
Activity (B16-F10 [21]): Non-toxic
Activity [22]: inactive
Activity (B16-F10 [23]): Non-toxic
Activity (B16-F10 [24]): 30.9%
Activity (B16-F10 [25]): Active; Compared With Nm And Mb + Irradiation Group Â?? Compound Showed More Pronounced Effect
Activity [26]: Non-toxic
Activity (B16-F10 [27]): Active
Activity (B16-F10 [28]): 0.65%
IC50 (B16-F10 [29]): 1350 nM
Activity (B16-F10 [30]): 62.2%
Activity [31]: Non-toxic
viability at 10 µM (B16-F10 [32]): 89.2%
Activity (B16-F10 [33]): Active; Compound Exhibit Strong Activity Relative To Mb+Light Group
Activity (B16-F10 [34]): Active; Almost Exclusively Exhibiting Red Fluorescence Signal
fold change (FC) [35]: 7
t1/2 [36]: 11 min
Activity [37]: Non-toxic
Activity (B16-F10 [38]): Active; Fluorescence Intensity Of Dcfh Within Cells Exhibited A Positive Correlation With The Duration Of Light Exposure
Activity [39]: inactive
Activity (B16-F10 [40]): Active
Activity [41]: inactive
Activity [42]: 100%
Activity (B16-F10 [1]): Active; Effect Is Higher Compared With Nm And Mb Group
Activity (B16-F10 [43]): 44.8%
Stability [44]: Stable
Activity [45]: Non-toxic
Activity (B16-F10 [46]): 0.45%

CN(C)c1ccc2nc3ccc(N(C)C)cc3[s+]c2c1.[Cl-] [METHYLENE BLUE ANHYDROUS]
viability at 10 µM (B16-F10 [8]): 22.5%
viability at 10 µM (B16-F10 [11]): 33.1%
Activity (B16-F10 [24]): 11.3%
Activity (B16-F10 [43]): 54.8%
Activity (B16-F10 [46]): 0.83%
